# Measured values reported in ChEMBL document CHEMBL4507282, “Data for DCP probe BI-1950” (2021).
# Assays:
# [1] = biological target: T1, 5-hydroxytryptamine receptor 3A (Homo sapiens) (UniProt P46098); experiment: 5HT3/HU Eurofins-Panlabs selectivity data (BI); conditions: Compound concentration 10.0 uM
# T1 sequence (whole entry): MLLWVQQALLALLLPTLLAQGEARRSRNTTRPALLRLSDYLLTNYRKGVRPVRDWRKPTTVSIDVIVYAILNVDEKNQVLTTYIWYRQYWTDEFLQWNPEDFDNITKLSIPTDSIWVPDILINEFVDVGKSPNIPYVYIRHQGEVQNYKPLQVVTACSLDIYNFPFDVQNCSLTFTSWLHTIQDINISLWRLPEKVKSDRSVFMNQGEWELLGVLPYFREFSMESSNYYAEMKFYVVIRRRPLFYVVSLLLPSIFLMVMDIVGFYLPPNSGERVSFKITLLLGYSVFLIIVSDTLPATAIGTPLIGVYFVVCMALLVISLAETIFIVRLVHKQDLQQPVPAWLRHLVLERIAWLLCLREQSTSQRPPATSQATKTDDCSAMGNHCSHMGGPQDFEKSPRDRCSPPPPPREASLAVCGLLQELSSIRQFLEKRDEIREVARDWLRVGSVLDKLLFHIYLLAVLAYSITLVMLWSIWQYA
# [2] = biological target: Sodium-dependent noradrenaline transporter (Homo sapiens) (UniProt P23975); conditions: Compound concentration 10.0 uM
# [3] = biological target: Gamma-aminobutyric acid receptor subunit alpha-1 (Rattus norvegicus) (UniProt P62813); experiment: GABAA MUSCIMOL CENT Eurofins-Panlabs selectivity data (BI); conditions: Compound concentration 10.0 uM
# [4] = biological target: Calcitonin-gene-related peptide receptor, CALCRL/RAMP1 (Homo sapiens) (UniProt O60894+Q16602); experiment: CGRP/HU Eurofins-Panlabs selectivity data (BI); assay type: protein-complex assay; conditions: Compound concentration 10.0 uM
# [5] = biological target: Muscarinic acetylcholine receptor (Rattus norvegicus) (UniProt P08482+P08483+P08485+P08911+P10980); experiment: MUSCARIN/NS Eurofins-Panlabs selectivity data (BI); assay type: protein assay; conditions: Compound concentration 10.0 uM
# [6] = biological target: Adrenergic receptor alpha-1 (Rattus norvegicus) (UniProt P15823+P23944+P43140); experiment: ALPHA1/R Eurofins-Panlabs selectivity data (BI); assay type: protein assay; conditions: Compound concentration 10.0 uM
# [7] = biological target: Type-1 angiotensin II receptor (Oryctolagus cuniculus) (UniProt P34976); experiment: AT1 Eurofins-Panlabs selectivity data (BI); conditions: Homo sapiens; Compound concentration 10.0 uM
# [8] = biological target: D(1B) dopamine receptor (Homo sapiens) (UniProt P21918); experiment: D5/HU Eurofins-Panlabs selectivity data (BI); conditions: Compound concentration 10.0 uM
# Cavia porcellus = species on record: Cavia porcellus; experiment: ATRANS Eurofins-Panlabs selectivity data (BI); conditions: Compound concentration 10.0 uM
# [9] = biological target: Beta-2 adrenergic receptor (Rattus norvegicus) (UniProt P10608); experiment: BETA/R Eurofins-Panlabs selectivity data (BI); conditions: Compound concentration 10.0 uM
# [10] = biological target: Serotonin 2 (5-HT2) receptor (Rattus norvegicus) (UniProt P30994+P08909+P14842); experiment: 5HT2/R Eurofins-Panlabs selectivity data (BI); assay type: protein assay; conditions: Compound concentration 10.0 uM
# [11] = biological target: Beta-3 adrenergic receptor (Homo sapiens) (UniProt P13945); conditions: Compound concentration 10.0 uM
# [12] = biological target: Histamine H1 receptor (Homo sapiens) (UniProt P35367); experiment: H1/H Eurofins-Panlabs selectivity data (BI); conditions: Compound concentration 10.0 uM
# [13] = biological target: Sigma non-opioid intracellular receptor 1 (Homo sapiens) (UniProt Q99720); conditions: Compound concentration 10.0 uM
# [14] = biological target: Opioid receptor (Rattus norvegicus) (UniProt P33533+P34975+P33535); experiment: OPIAT/NS Eurofins-Panlabs selectivity data (BI); assay type: protein assay; conditions: Compound concentration 10.0 uM
# [15] = biological target: Gamma-aminobutyric acid receptor subunit alpha-1 (Rattus norvegicus) (UniProt P62813); experiment: GABAACL+ Eurofins-Panlabs selectivity data (BI); conditions: Compound concentration 10.0 uM
# [16] = biological target: Potassium voltage-gated channel subfamily A member 1 (Rattus norvegicus) (UniProt P10499); experiment: K+/KA/R Eurofins-Panlabs selectivity data (BI); conditions: Compound concentration 10.0 uM
# [17] = biological target: GABA-A receptor; anion channel (Rattus norvegicus) (UniProt O09028+P15431+P18506+P18508+P19969+P20236+P23574+P23576+P28471+P28473+P30191+P62813+P63079+P63138+Q91ZM7+Q9ES14); conditions: Compound concentration 10.0 uM
# [18] = biological target: Sodium-dependent noradrenaline transporter (Homo sapiens) (UniProt P23975); experiment: NETRANS/H Eurofins-Panlabs selectivity data (BI); conditions: Compound concentration 10.0 uM
# [19] = biological target: Sigma intracellular receptor 2 (Homo sapiens, UniProt Q5BJF2); experiment: GPCRScan assay: inhibition of Sigma 2; design: radioligand conc. used [nm] 5.0, parental cells HEKT
# Chain of Sigma intracellular receptor 2 (Q5BJF2 whole entry): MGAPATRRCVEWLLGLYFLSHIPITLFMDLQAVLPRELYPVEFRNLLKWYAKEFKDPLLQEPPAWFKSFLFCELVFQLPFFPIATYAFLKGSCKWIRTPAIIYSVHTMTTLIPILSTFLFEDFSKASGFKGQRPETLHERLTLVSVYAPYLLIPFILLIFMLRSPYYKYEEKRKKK
# Chain of Sodium-dependent noradrenaline transporter (Homo sapiens) (P23975 whole entry): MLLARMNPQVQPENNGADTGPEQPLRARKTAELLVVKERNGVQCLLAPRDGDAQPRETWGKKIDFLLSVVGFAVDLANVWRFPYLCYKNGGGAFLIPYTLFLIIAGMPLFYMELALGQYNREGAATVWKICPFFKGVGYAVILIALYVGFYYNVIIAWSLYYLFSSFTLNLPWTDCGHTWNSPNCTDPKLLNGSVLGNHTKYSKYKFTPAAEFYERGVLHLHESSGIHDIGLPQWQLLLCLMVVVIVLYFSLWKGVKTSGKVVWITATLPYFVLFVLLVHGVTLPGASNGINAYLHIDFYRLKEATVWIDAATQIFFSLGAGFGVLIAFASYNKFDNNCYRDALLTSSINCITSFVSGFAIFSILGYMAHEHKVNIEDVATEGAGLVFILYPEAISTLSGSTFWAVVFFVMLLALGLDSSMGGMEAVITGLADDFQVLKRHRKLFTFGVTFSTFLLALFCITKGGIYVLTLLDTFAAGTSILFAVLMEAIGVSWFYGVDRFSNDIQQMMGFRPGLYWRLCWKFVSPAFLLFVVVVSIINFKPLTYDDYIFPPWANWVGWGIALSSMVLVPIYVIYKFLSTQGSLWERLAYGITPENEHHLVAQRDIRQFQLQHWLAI
# Chain of Gamma-aminobutyric acid receptor subunit alpha-1 (Rattus norvegicus) (P62813 whole entry): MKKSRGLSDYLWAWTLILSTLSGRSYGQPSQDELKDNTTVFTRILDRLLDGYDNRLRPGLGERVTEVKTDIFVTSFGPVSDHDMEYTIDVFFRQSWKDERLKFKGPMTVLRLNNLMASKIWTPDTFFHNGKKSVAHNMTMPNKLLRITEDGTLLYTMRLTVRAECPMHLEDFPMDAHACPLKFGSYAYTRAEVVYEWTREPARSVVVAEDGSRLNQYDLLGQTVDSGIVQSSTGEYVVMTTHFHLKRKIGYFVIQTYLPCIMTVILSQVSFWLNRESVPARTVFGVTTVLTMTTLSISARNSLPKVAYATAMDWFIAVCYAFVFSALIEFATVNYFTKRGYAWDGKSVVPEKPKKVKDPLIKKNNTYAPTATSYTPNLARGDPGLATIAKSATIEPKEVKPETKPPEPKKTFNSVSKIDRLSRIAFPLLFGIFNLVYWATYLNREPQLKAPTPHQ
# Chain of Histamine H1 receptor (Homo sapiens) (P35367 whole entry): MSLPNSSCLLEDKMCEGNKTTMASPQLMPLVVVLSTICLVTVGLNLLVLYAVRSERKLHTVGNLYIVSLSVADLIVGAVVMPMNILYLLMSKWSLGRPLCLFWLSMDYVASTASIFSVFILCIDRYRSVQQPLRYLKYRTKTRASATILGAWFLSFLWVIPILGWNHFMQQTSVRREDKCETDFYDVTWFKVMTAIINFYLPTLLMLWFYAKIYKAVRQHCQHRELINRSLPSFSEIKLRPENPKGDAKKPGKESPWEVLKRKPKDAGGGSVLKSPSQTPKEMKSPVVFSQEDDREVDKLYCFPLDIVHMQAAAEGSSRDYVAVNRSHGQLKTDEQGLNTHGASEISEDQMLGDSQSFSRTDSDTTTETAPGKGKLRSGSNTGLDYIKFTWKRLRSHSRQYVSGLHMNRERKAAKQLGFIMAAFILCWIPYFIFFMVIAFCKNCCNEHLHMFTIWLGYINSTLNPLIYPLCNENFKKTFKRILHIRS
# Chain of Type-1 angiotensin II receptor (Oryctolagus cuniculus) (P34976 whole entry): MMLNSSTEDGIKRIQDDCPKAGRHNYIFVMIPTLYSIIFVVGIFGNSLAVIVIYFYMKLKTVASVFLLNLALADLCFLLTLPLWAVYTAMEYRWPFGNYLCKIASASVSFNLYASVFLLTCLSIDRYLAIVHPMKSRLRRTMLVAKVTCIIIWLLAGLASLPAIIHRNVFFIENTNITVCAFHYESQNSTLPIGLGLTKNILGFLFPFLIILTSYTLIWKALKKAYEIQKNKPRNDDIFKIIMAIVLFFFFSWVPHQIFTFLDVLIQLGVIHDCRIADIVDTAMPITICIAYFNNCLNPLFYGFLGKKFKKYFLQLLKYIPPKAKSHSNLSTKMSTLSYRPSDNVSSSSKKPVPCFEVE
# Chain of Opioid receptor (Rattus norvegicus) (P33533 whole entry, looked up): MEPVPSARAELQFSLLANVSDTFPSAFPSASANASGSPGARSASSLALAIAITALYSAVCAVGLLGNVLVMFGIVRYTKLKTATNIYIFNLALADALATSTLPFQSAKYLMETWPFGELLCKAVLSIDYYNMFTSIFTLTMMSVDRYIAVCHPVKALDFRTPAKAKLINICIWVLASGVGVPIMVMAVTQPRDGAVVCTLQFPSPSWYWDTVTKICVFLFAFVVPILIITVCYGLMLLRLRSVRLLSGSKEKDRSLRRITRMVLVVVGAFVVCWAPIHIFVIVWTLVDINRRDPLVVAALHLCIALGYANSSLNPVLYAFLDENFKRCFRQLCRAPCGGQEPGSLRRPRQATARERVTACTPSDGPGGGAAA
# Chain of Opioid receptor (Rattus norvegicus) (P33535 whole entry, looked up): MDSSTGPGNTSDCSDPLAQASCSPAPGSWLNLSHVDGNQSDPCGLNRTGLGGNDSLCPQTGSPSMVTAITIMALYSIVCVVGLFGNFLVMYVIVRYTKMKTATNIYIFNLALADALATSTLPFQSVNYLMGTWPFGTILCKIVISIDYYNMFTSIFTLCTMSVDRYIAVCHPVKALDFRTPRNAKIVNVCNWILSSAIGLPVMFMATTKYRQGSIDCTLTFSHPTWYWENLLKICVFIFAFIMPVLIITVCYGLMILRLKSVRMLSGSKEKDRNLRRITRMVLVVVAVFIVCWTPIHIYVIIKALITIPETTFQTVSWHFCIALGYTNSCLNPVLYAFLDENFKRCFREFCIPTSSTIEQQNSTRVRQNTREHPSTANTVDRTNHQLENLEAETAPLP
# Chain of Opioid receptor (Rattus norvegicus) (P34975 whole entry, looked up): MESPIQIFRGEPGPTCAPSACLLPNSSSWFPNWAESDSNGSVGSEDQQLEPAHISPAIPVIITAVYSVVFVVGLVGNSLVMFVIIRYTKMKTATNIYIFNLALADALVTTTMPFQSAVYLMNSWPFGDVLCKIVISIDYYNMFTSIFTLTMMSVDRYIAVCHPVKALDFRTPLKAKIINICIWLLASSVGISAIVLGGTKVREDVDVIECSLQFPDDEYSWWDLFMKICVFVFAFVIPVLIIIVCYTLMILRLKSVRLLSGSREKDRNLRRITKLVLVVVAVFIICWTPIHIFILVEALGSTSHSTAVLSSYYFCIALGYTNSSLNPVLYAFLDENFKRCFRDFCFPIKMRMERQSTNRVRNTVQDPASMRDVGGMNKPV
# Chain of Potassium voltage-gated channel subfamily A member 1 (Rattus norvegicus) (P10499 whole entry): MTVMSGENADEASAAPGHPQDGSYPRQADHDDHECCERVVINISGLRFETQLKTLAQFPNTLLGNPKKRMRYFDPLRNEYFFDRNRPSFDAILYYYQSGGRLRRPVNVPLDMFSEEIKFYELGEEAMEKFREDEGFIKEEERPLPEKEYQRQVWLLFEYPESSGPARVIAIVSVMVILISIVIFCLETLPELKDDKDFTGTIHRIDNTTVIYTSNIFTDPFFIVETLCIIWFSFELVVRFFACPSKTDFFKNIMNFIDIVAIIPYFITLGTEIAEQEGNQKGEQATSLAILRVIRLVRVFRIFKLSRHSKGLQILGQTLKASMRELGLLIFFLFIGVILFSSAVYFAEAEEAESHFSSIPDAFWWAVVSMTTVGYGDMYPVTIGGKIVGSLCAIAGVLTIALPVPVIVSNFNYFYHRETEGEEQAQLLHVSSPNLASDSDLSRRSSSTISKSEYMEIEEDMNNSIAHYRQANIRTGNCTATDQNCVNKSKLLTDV
# Chain of Beta-2 adrenergic receptor (Rattus norvegicus) (P10608 whole entry, looked up): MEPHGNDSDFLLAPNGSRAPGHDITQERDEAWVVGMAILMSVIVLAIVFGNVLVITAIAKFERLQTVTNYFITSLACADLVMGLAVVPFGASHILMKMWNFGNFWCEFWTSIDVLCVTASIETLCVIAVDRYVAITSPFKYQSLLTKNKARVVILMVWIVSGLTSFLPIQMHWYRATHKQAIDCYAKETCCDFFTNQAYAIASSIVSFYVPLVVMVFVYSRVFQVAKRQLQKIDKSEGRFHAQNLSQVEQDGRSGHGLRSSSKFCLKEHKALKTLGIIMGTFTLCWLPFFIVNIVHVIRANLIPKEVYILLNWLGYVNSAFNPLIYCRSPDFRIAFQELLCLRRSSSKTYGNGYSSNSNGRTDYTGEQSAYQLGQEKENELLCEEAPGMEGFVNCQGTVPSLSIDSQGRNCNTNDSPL
# Chain of Sigma non-opioid intracellular receptor 1 (Homo sapiens) (Q99720 whole entry): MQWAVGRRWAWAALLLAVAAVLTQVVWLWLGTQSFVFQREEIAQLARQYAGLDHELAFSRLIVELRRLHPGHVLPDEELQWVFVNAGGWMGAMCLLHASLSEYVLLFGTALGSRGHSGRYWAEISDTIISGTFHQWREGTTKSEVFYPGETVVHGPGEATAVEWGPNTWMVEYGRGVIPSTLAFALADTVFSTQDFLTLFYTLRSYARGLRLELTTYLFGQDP
# Chain of D(1B) dopamine receptor (Homo sapiens) (P21918 whole entry): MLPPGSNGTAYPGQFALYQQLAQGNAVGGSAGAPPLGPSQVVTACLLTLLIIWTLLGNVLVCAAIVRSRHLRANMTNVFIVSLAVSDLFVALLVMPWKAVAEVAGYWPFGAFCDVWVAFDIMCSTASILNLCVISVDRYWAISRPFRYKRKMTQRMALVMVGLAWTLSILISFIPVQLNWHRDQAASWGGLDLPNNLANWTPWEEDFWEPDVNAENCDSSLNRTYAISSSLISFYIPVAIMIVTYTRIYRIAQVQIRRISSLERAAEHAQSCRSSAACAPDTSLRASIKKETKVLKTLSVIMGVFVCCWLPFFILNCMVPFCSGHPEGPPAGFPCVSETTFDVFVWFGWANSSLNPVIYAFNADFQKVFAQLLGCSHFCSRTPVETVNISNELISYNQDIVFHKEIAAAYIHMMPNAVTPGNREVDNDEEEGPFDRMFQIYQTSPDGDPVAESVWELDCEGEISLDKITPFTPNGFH
compound,measurement,setting,value
C[C@H](NC(=O)c1cnc2n1[C@](C)(Cc1ccc(C#N)cc1)C(=O)N2c1cc(Cl)c(F)c(Cl)c1)C(=O)NC1(c2ccccn2)CC1 [BI 1950],residual activity,[1],134%
same,inhibition,[2],-2.81%
same,residual activity,[3],96%
same,residual activity,[4],105%
same,residual activity,[5],109%
same,residual activity,[6],102%
same,residual activity,[7],90%
same,residual activity,[8],86%
same,residual activity,Cavia porcellus,92%
same,residual activity,[9],84%
same,residual activity,[10],98%
same,inhibition,[11],12.4%
same,residual activity,[12],109%
same,inhibition,[13],-6.44%
same,residual activity,[14],78%
same,residual activity,[15],73%
same,residual activity,[16],92%
same,inhibition,[17],4.9%
same,residual activity,[18],72%
C[C@@]1(Cc2ccc(C#N)cc2)C(=O)N(c2cc(Cl)cc(Cl)c2)c2ncc(C(=O)NC3(c4nc(C5CCC5)no4)CC3)n21 [BI 9446],Ki,[19]; read-out: Ki,558 nM
same,Ki,[19]; read-out: pKi (converted),507 nM
